Assay results from publication PMC11853379, “Glioblastoma Cell Migration, Invasion and Vasculogenic Mimicry Downmodulated by Novel uPAcyclin Derivatives” (Cells, 2025).
Positions of bridges follow the written chain, without caps; N, C: chain ends. Residues, ends and D or L forms follow the SMILES beside them.

System: U87-MG cells
Format: cell-based, human
Method: The migration and invasion assays were performed with Boyden chambers, according to De Vincenzo et al., using 11 × 10^4 U87-MG and U251-MG glioblastoma cells/sample pre-treated for 40 min at 37 °C with the indicated effectors and then allowed to migrate for 3 h or to invade for 5 h at 37 °C toward 5% FBS in DMEM/0.1% BSA. The migrated or invaded cells were reported as a percentage of basal random migration or invasion and analyzed as reported in the Statistical Analyses section. The migration and invasion experiments were conducted in triplicate.
Figure 1 Binding of Ala peptides to U87-MG cells and effect of uPAcyclin and Ala peptides on U87-MG cellular migration. (A) A total of 2 × 10^6 U87-MG cells were pre-incubated for 30 min at 4 °C with increasing concentrations of unlabeled uPAcyclin and Ala peptides and then exposed to 50 nM of FITC-uPAcyclin for 2 h at 4 °C. Cell surface-associated fluorescence, as percentage of the sample with […], is shown. Experiments were carried out in duplicate, and the data shown here are representative of three independent experiments. (B) 11 × 10^4 U87-MG cells/sample were pre-treated for 40 min at 37 °C with increasing concentrations of uPAcyclin or the indicated Ala peptides and then assayed in Boyden chambers for 5% FBS-dependent migration for 3 h at 37 °C. At the end of incubation, the filters were processed as described in the Methods section. For clarity here and in the following Figures, Ala-x indicates the peptide with substituted x-position. For both assays, the p-values are in the range of 0.005 ≤ p ≤ 0.001, apart from [Ala1]uPAcyclin in the migration assay with p ≤ 0.05.
Alterations of the amino acid sequence may affect the peptide structure and may, in turn, alter its function. To test for differences in the inhibitory activity of the Ala-substituted peptides, U87-MG glioblastoma cells were subjected to a directional migration assay in Boyden chambers towards FBS, in the presence or in the absence of the indicated concentrations of uPAcyclin or one of its Ala-scan derivatives (Figure 1B).

Compound: CC(=O)N[C@@H](CCCCN)C(=O)N[C@@H](C)C(=O)N[C@H]1CCC(=O)NCCCC[C@@H](C(N)=O)NC(=O)[C@H](CC(C)C)NC(=O)[C@H](CCC(=O)O)NC(=O)[C@H](CCC(=O)O)NC(=O)[C@@H]2CCCN2C(=O)[C@H](C)NC(=O)[C@H](CO)NC1=O [[Ala^2,Ala^5]uPAcyclin] (Ac-KAESAPEELK-NH2; lactam 3-10)
- IC50 of migration lower / inhibitory activity higher than parental uPAcyclin (U87-MG migration): ~100 fold
- inhibitory activity on cell migration, comparison (in words) (U87-MG migration toward 5% FBS): most potent peptide of the series
- IC50 of migration lower than the single variants (U87-MG migration, versus [Ala^2]uPAcyclin and [Ala^5]uPAcyclin): about 10 fold
- migration reduced to (percentage of basal random migration) (U87-MG, 5% FBS, concentration not given): about 70%

Compound: CC(=O)N[C@@H](CCCCN)C(=O)N1CCC[C@H]1C(=O)N[C@H]1CCC(=O)NCCCC[C@@H](C(N)=O)NC(=O)[C@H](CC(C)C)NC(=O)[C@H](CCC(=O)O)NC(=O)[C@H](CCC(=O)O)NC(=O)[C@@H]2CCCN2C(=O)[C@@H]2CCCN2C(=O)[C@H](CO)NC1=O [uPAcyclin] (Ac-KPESPPEELK-NH2; lactam 3-10)
- concentration at which dose-dependent inhibitory activity starts (U87-MG migration toward 5% FBS): 1 pM
- effect on FBS-induced directional migration (in words) (U87-MG, 1 µM peptide): abolishes FBS-induced directional migration
